Ends that are not written are not given here.
Key:
[1] = Electronic tongue analysis (Taste-Sensing System SA 402B); design: unit not given here; settings: reference solution 30 mM KCl + 0.3 mM tartaric acid as baseline, first measurement excluded; for Umami: sensor AAE; for Umami / Bitter / Sweet: detection threshold 0, room temperature; for Umami / Bitter / Sour / Salty: four replicates; for Sour: detection threshold -13, room temperature; for Salty: detection threshold -6, room temperature; for Sweet: measured five times
Description: Taste characteristics were analyzed using the electronic tongue system E-tongue (Taste-Sensing System SA 402B, Intelligent Sensor Technology Co. Ltd., Japan). The system was equipped with five specific sensor probes for detecting sourness (CA0), saltiness (CT0), bitterness (C00), sweetness (GL1), and umami (AAE). Samples were tested at concentrations of 0.1 mg/mL and 1.0 mg/mL. Prior to experiments, sensors were activated by immersion in a reference solution (30 mM KCl and 0.3 mM tartaric acid) for 24 h. A 30 min self-diagnostic procedure was performed before each measurement to ensure data accuracy. The reference solution served both as a cleaning solution and standard solution for taste signal calibration. According to the manufacturer’s instructions, using the reference solution as baseline, the detection thresholds were set at −13 for sourness, −6 for saltiness, and 0 for other taste modalities. Two cleaning solutions were employed for electrode maintenance: (1) 30% ethanol solution containing 100 mM HCl for negative charge reference electrodes, and (2) 30% ethanol solution containing 100 mM KCl and 10 mM KOH for positive charge reference electrodes. All taste measurements were performed at room temperature with four replicates, except for sweetness which was measured five times. The first measurement data were excluded from analysis.

[2] = tested on: human bronchial epithelial cells (BEAS-2B)
Description: The cytotoxicity of 73 synthetic peptides was evaluated using four human cell lines: human pancreatic ductal epithelial cells (HPNE), human embryonic kidney cells (HEK293T), human umbilical vein endothelial cells (HUVEC), and human bronchial epithelial cells (BEAS-2B). When cell density reached 70% confluence, the complete culture medium was replaced with serum-free maintenance medium, and peptides were added at a final concentration of 100 μM for 36 h. Control groups received only serum-free maintenance medium without peptides. Cell proliferation was assessed using the CCK-8 assay kit (Solarbio, CA1210) according to the manufacturer’s instructions.

[3] = tested on: human embryonic kidney cells (HEK293T)
[4] = tested on: human pancreatic ductal epithelial cells (HPNE)
[5] = tested on: human umbilical vein endothelial cells (HUVEC)

Substance	Umami ([1]; peptide 0.1 mg/mL)	Umami ([1]; peptide 1 mg/mL)	Bitter ([1]; sensor C00, peptide 0.1 mg/mL)	Bitter ([1]; sensor C00, peptide 1 mg/mL)	Sour ([1]; sensor CA0, peptide 0.1 mg/mL)	Sour ([1]; sensor CA0, peptide 1 mg/mL)	Salty ([1]; sensor CT0, peptide 0.1 mg/mL)	Salty ([1]; sensor CT0, peptide 1 mg/mL)	Sweet ([1]; sensor GL1, peptide 0.1 mg/mL)	Sweet ([1]; sensor GL1, peptide 1 mg/mL)	Average cell viability, BEAS-2B [2]	Cell viability, BEAS-2B, Data1 [2]	Cell viability, BEAS-2B, Data2 [2]	Cell viability, BEAS-2B, Data3 [2]	Average cell viability, HEK293T [3]	Cell viability, HEK293T, Data1 [3]	Cell viability, HEK293T, Data2 [3]	Cell viability, HEK293T, Data3 [3]	Average cell viability, HPNE [4]	Cell viability, HPNE, Data1 [4]	other results
DFKEELPK [TaPep42]	0.30	-6.40	7.41	2.96	-0.03	16.30	-15.26	15.72	3.04	-6.66	106.12	95.21	103.99	119.14	100.35	101.45	95.30	104.29	106.29	109.92	Cell viability, HPNE, Data2 [4]: 101.63; Cell viability, HPNE, Data3 [4]: 107.32; Average cell viability, HUVEC [5]: 100.96; Cell viability, HUVEC, Data1 [5]: 109.77; Cell viability, HUVEC, Data2 [5]: 97.95; Cell viability, HUVEC, Data3 [5]: 95.16
DQEPVE [TaPep44]	0.51	-6.35	7.74	3.13	-0.62	14.96	-19.30	10.03	3.94	-11.10	101.53	108.18	97.51	98.90	102.43	105.71	98.14	103.44	105.06	112.51	Cell viability, HPNE, Data2 [4]: 118.30; Cell viability, HPNE, Data3 [4]: 84.36; Average cell viability, HUVEC [5]: 109.31; Cell viability, HUVEC, Data1 [5]: 108.41; Cell viability, HUVEC, Data2 [5]: 112.00; Cell viability, HUVEC, Data3 [5]: 107.53
DQKVLA [TaPep3]	2.16	-4.90	7.84	2.95	-4.64	12.21	-20.13	13.20	7.95	-6.65	108.77	109.77	102.49	114.06	94.20	93.79	84.04	104.76	93.24	97.04	Cell viability, HPNE, Data2 [4]: 98.74; Cell viability, HPNE, Data3 [4]: 83.96; Average cell viability, HUVEC [5]: 98.83; Cell viability, HUVEC, Data1 [5]: 114.40; Cell viability, HUVEC, Data2 [5]: 89.41; Cell viability, HUVEC, Data3 [5]: 92.68
EDGPHGD [TaPep45]	0.96	-5.11	7.77	4.03	-1.77	12.61	-19.03	9.35	4.54	-4.05	94.75	89.83	99.50	94.92	97.35	98.99	96.25	96.81	101.66	107.42	Cell viability, HPNE, Data2 [4]: 100.73; Cell viability, HPNE, Data3 [4]: 96.84; Average cell viability, HUVEC [5]: 98.64; Cell viability, HUVEC, Data1 [5]: 103.46; Cell viability, HUVEC, Data2 [5]: 90.77; Cell viability, HUVEC, Data3 [5]: 101.70
EEVPITD [TaPep46]	1.60	-4.41	7.55	4.18	-3.21	10.78	-21.33	4.55	6.32	-3.59	111.37	117.25	103.29	113.56	100.85	99.94	100.60	102.02	104.39	107.62	Cell viability, HPNE, Data2 [4]: 107.82; Cell viability, HPNE, Data3 [4]: 97.74; Average cell viability, HUVEC [5]: 101.12; Cell viability, HUVEC, Data1 [5]: 105.61; Cell viability, HUVEC, Data2 [5]: 97.55; Cell viability, HUVEC, Data3 [5]: 100.19
EFPEQN [TaPep17]	1.17	-5.94	7.25	3.52	-2.22	14.54	-21.65	-0.53	5.23	-5.15	109.94	112.36	107.58	109.87	98.68	94.45	102.97	98.61	92.31	86.66	Cell viability, HPNE, Data2 [4]: 92.25; Cell viability, HPNE, Data3 [4]: 98.04; Average cell viability, HUVEC [5]: 96.70; Cell viability, HUVEC, Data1 [5]: 94.76; Cell viability, HUVEC, Data2 [5]: 94.12; Cell viability, HUVEC, Data3 [5]: 101.22
